In US20260234351A1, “ANTIMICROBIAL POLYMER FOAMS COMPRISING A SYNERGISTIC BLEND OF COMPONENTS” (Cupron Performance Additives, Inc., priority 2023, published 2026):

Tested on: E. coli (ATCC 8739)
Assay: Zone of Inhibition (ZOI), sample pellets on agar
Conditions: for diameter of the ZOI: pellets with 20 wt % cellulose binder (Tables 1 and 2)
[1] = E. coli, 24 h incubation at 37° C.

Protocol: Zone of Inhibition (ZOI). […] The cultures were streaked on Luria Agar (LB) plates and incubated overnight at 37° C. […] 50 μL of this stock suspension was spread homogeneously on a trypticase soy agar (TSA) plate (diameter 10 cm).

Substance: Zinc borate
- diameter of the ZOI [1]: No ZOI
- antimicrobial efficacy in the zone of inhibition testing (compound alone): no significant antimicrobial efficacy

Substance: molybdenum (VI) oxide [molybdenum oxide]
- diameter of the ZOI [1]: 19 mm

Substance: basic copper(II) carbonate [BCC]
- Zone of Inhibition Diameter (mm) Avg (E. coli, 24 h incubation at 37° C., cellulose binder, average of 3 trials): 12 mm
